Drawing on PubChem BioAssay AID2305 (GlaxoSmithKline (GSK), 2010), this text covers IC50 for 85 molecules.

For orientation: IC50 means the concentration that inhibits the measured activity by half. The low end stands for higher potency, the high end for lower potency.

In this assay the test system is P. falciparum 3D7 growth, pLDH absorbance. The experiment in a line: P. falciparum 3D7 growth inhibition, dose response, strain 3D7 (AID 2305).

Molecule `Cc1ccc(NC(=O)c2cc(Br)cc(N3CCCN(C)CC3)c2)cc1F` gave a half-inhibitory concentration (IC50) of 1340 nM.

`COc1cc(C2CCCCC2)c(OC)cc1CC1c2cc(O)c(Cl)cc2CCN1C` (stereo not given) returned a 50% inhibitory concentration (IC50) of 450 nM.

The molecule `O=C(NC1CCC(CCN2CCc3ccc(-c4cnccn4)cc3CC2)CC1)c1cccc(-n2cccn2)c1` (stereo not given) displayed an IC50 of 900 nM.

`O=S(=O)(c1ccc(NC(=S)NN=Cc2ccccn2)cc1)N1CCCCC1` gave a half-inhibitory concentration (IC50) of 720 nM. `COc1ccc(-c2ccc(NC(=O)c3cccc(Cl)c3)cc2)cc1CN1CCCC1` had a concentration for half-maximal inhibition (IC50) of 710 nM.

Take `Nc1cc(-c2ccc(-c3cccs3)s2)nc2ccccc12`: the IC50 stood at 600 nM. As to `CCCC(CNCc1ccc(Cl)c(C(F)(F)F)c1)CNc1nc2ccncc2[nH]1` (stereo not given), the IC50 is 290 nM. Turning to `c1ccc2c(c1)ncn2-c1ccnc(Nc2ccncc2)n1`, the IC50 was 650 nM. In the case of `O=C(Nc1ccc(-c2cccc(-c3nc4ccc(F)cc4[nH]3)c2)cc1)Nc1ccc(F)c(F)c1F` it was 740 nM; in that of `S=C(NCCCCCN1CCC(c2c[nH]c3ccccc23)CC1)Nc1cc(Cl)cc(Cl)c1`, 870 nM; in that of `CCN(CC)S(=O)(=O)c1ccc(C(=O)Oc2ccccc2N(Cc2ccc(OC)cc2)C2=NS(=O)(=O)c3ccccc32)cc1`, 580 nM. The molecule `CS(=O)(=O)CCNCc1ccc(-c2ccc3c(Nc4ccc(Cl)cc4F)ccnc3c2)o1` came in with an IC50 of 670 nM. In the case of `COc1cc(Nc2nccc(-c3c(-c4cccc(NC(=O)c5c(F)cccc5F)c4)nn4ncccc34)n2)cc(OC)c1OC` it was 30 nM. As to `O=C(NC1CCCc2ccccc21)[C@@H]1CCCN1C(=O)c1ccc(O)c(-c2ccc(Cl)c(Cl)c2)c1` (stereo not given in full), the 50% inhibitory concentration (IC50) was 210 nM. Compared with the last molecule, the IC50 is about 7-fold higher.

In the case of `CC(C)(C)c1ccc2nc(-c3ccc(C(=O)NCc4cccc(C(F)(F)F)c4)cc3)[nH]c2c1`, the IC50 came out at 730 nM. Against the preceding molecule, the IC50 is about 3.5-fold higher.

As for `CCOC(=O)NC1=NC(C)(C)N(OCc2ccc(Cl)c(Cl)c2)C(NC(=O)OCC)=N1`, the IC50 turned out to be 280 nM. In the case of `COc1ccc(Cl)cc1N1CCN(CCCNC(=O)c2ccc(-c3nc4cc(Cl)c(C)cc4[nH]3)s2)CC1` it was 780 nM; in that of `CCC(CC)(Cc1ccccc1)NC(=O)[C@H](Cc1ccc(OC)c(OC)c1)Nc1ccc(C#N)c2ccccc12`, 870 nM; in that of `CN1CCN(c2ccc(Nc3nc(N)c4ccn(C5CCC5)c4n3)cc2)CC1`, 1220 nM.

`CCn1c(-c2nonc2N)nc2c(-c3cccc(NC(=O)Nc4cccc(C#N)c4)c3)ncc(OCCCN)c21`: the half-inhibitory concentration (IC50) was determined as 670 nM. `O=[N+]([O-])c1cccc(C=NNc2nc(Nc3ccccc3)nc(Nc3ccccc3)n2)c1` registered an IC50 of 970 nM.

`CC(=O)OC[C@H]1O[C@@H](C#Cc2ccccc2)[C@H](OC(C)=O)[C@@H](OC(C)=O)[C@@H]1OC(C)=O` yielded an IC50 of 280 nM. This IC50 lies about 3.5-fold lower than the previous one. For `O=C(NCCCCN1CC=C(c2ccc3c(c2OCc2ccccc2)CCCC3)CC1)c1ccc(-c2ccc(C(F)(F)F)cc2)cc1`, the half-inhibitory concentration (IC50) is 300 nM.

`Cc1ccc(Nc2nc(C)cc(NC3CCN(C)CC3)n2)cc1` yielded an IC50 of 500 nM.

For the molecule `O=C(NCc1ccc(F)cc1)Nc1cccc(-c2ccc(-c3nc4ccccc4[nH]3)cc2)c1`, the IC50 was 170 nM.

The molecule `c1ccc(Oc2ccc(Nc3ccnc4cc(-c5ccc(CN6CCNCC6)o5)ccc34)cc2)nc1` displayed an IC50 of 240 nM. This IC50 and that of the molecule before are within 1.5-fold of each other. Molecule `Cc1nc(-c2nc(NCCc3c(C)noc3C)ncc2-c2ccsc2)sc1C` returned an IC50 of 260 nM. Molecule `O=S(=O)(NCCN1CCCC1)c1ccc(-c2ccc(CNCc3ccc(F)cc3)cc2)cc1F` displayed an IC50 of 1280 nM. Molecule `O=C(Nc1cccc(-c2cc(-c3c(Cl)cccc3Cl)no2)c1)c1cncc(-c2cccs2)c1` displayed an IC50 of 950 nM. For the molecule `CN1CCCc2cc(NC(=O)C=Cc3ccc(-c4ccc(F)cc4F)o3)ccc2C1`, the concentration for half-maximal inhibition (IC50) was 780 nM. Regarding `CCCC(C)Nc1nc(C)cc(N[C@@H](CC(C)C)C(=O)NCCOc2ccccc2)n1` (stereo not given in full), the IC50 stood at 1710 nM. This IC50 lies about 2.2-fold higher than the previous one. The molecule `CCCCN(CCCC)CCOc1cc2c(cc1OC)CCN2C(=O)/C=C/c1ccccc1Cl` had a half-inhibitory concentration (IC50) of 1180 nM. The IC50 values of the last two molecules are within 1.5-fold of each other. With `CN(C)CCNC(=O)c1ccc(-c2ccc3c(Nc4ccccc4)c(C(N)=O)cnc3c2)cc1`, the IC50 was determined as 730 nM. Compared with the last molecule, the IC50 is about 1.6-fold lower.

Molecule `CCNc1cc(C(=O)N[C@@H](Cc2ccccc2)[C@H](O)CNC2CCCC2)cc(N2CCCC2=O)c1` showed an IC50 of 80 nM. In the case of `CC1CCN(CC[C@H]2CCCN2S(=O)(=O)c2cccc(NC(=O)c3ccc(-c4ccc(Cl)cc4)o3)c2)CC1` it was 690 nM. In the case of `CC(=NN=C(N)N)C(=O)Nc1ccc(Cl)c(Cl)c1`, the concentration for half-maximal inhibition (IC50) was determined as 170 nM. In the case of `COC(=O)c1cc(/C(C)=N/Nc2nc3ccccc3[nH]2)ccc1O` it was 680 nM.

As to `COc1ccc2nccc([C@@H](O)CN3CCC(NCCOc4ccccc4C#N)CC3)c2c1`, the IC50 turned out to be 400 nM. `Cc1cccc2[nH]c(-c3cccc(-c4ccc(NC(=O)COc5ccccc5C(N)=O)cc4)c3)nc12` returned a half-maximal inhibitory concentration (IC50) of 890 nM. In the case of `O=C(Nc1ccccc1)Nc1cccc(-c2cccc(-c3nc4ccc(F)cc4[nH]3)c2)c1`, the concentration for half-maximal inhibition (IC50) was determined as 180 nM. In the case of `CN1CCC(Oc2ccc(CN3CC[C@H](NC(=O)c4ccc(Cl)c(Cl)c4)C3)cc2Cl)C1` (stereo not given in full) it was 880 nM. In the case of `CCC(C)NS(=O)(=O)c1ccc2nc(Nc3ccc(C)cc3)n(C3CCCCC3)c2c1` (stereo not given) it was 460 nM; in that of `CN(C)C(=O)C(CC(=O)NCc1ccccc1Cl)N(C)C` (stereo not given) (tested in a mixture with another compound), 900 nM; in that of `Cc1cc(C(=O)CN2C(=O)NC3(CCOc4ccccc43)C2=O)c(C)n1Cc1ccc(F)cc1` (stereo not given), 880 nM.

With `CC(CN1CCN(C)CC1)C(=O)Nc1ccc(-c2ccc(-c3nc4ccccc4[nH]3)cc2)cc1` (stereo not given), the half-maximal inhibitory concentration (IC50) worked out at 950 nM. This IC50 and that of the molecule before are within 1.5-fold of each other. Take `COc1nc2c(N3CCN(CCNCc4ccc5c(n4)NC(=O)CS5)CC3)ccnc2cc1F`: the IC50 was found to be 710 nM. `COc1ccc2c(NN=Cc3ccccc3)ccnc2c1` had a half-maximal inhibitory concentration (IC50) of 130 nM.

`COc1ccc(S(=O)(=O)Nc2ccc(C(=O)NCc3ccccc3C(F)(F)F)cc2)cc1N1CCN(CC2CC2)CC1` showed a half-maximal inhibitory concentration (IC50) of 1150 nM. Compared with the last molecule, the IC50 is about 8.8-fold higher. As to `Cc1cc(C2CCN(CCCCNC(=O)c3ccc(-c4ccc(C(F)(F)F)cc4)cc3)CC2)c(C)cc1OCC(N)=O`, the IC50 worked out at 800 nM. With `CN(C)CCCOC(=O)c1cc2cc(-c3ccccc3)ccc2n1S(=O)(=O)Cc1ccccc1`, the IC50 was 360 nM. This IC50 lies about 2.2-fold lower than the previous one. In the case of `COc1ccc(Nc2ccnc3cc4ccccc4cc23)cc1`, the IC50 stood at 680 nM. Take `CCN(CC)Cc1ccc2c(=O)cc(CCc3cccc(F)c3F)n(CC(=O)N(Cc3ccc(-c4ccc(C(F)(F)F)cc4)cc3)C(C)C)c2c1`: the IC50 was 780 nM. Turning to `Cc1ccccc1C1CCN(C2CCC(NC(=O)/C=C/c3cccc(C(F)(F)F)c3)CC2)CC1` (stereo not given), the IC50 came out at 1520 nM. This IC50 is about 1.9-fold higher than that of the molecule before. `CCCCN(C)CC#Cc1ccc(-c2ccc3[nH]c(C)c(Br)c(=O)c3c2)cn1` came in with an IC50 of 650 nM. As to `O=C(O)c1ccc2nc(-c3ccc(-c4ccccc4)cc3)n(C3CCN(Cc4ccc(-c5ncc[nH]5)cc4)CC3)c2c1`, the IC50 was 1730 nM.

On to `CC(=O)c1ccc(NC(=O)Nc2ccc(N(C)c3ccnc(NC4CC4)n3)cc2)cc1`, for which the IC50 is 800 nM. Compared with the last molecule, the IC50 is about 2.2-fold lower.

In the case of `CN1C(C)(C)CC(NC(=O)c2ccc(-c3cc4cc(Cl)c(Cl)cc4[nH]3)o2)CC1(C)C`, the IC50 was 1120 nM. Next, `CCNc1cc(C(=O)N[C@@H](Cc2ccccc2)[C@H](O)CNCc2ccc3c(c2)OCCO3)cc(N2CCCCS2(=O)=O)c1`: 1350 nM; `c1cc(Cc2ccc(Nc3c4ccccc4nc4ccccc34)cc2)cc(Nc2c3ccccc3nc3ccccc23)c1`: 140 nM. On to `CNC(=O)c1cnc(Nc2ccc(N3CCOCC3)cc2)nc1Nc1cccc(O)c1`, for which the half-maximal inhibitory concentration (IC50) was 810 nM. The molecule `Oc1cccc(Nc2ccnc3cc(-c4cc5ccccc5o4)ccc23)c1` returned a half-maximal inhibitory concentration (IC50) of 760 nM. Next, `Clc1ccc2c(NN=Cc3cccs3)ccnc2c1`: 920 nM.

In the case of `NC(=NCCCCCCN=C(N)/N=C(\N)c1ccc(Cl)cc1)/N=C(\N)c1ccc(Cl)cc1`, the half-inhibitory concentration (IC50) was found to be 210 nM. This IC50 is about 4.4-fold lower than that of the molecule before. As for `CCCCCCCCNCC(O)c1cc(-c2ccc(Cl)cc2)nc2cc(C)ccc12` (stereo not given), the IC50 was 80 nM. `Cc1[nH]c(C)c(-c2cccc(-c3ccc(OC(F)(F)F)cc3)c2)c(=O)c1Br` registered an IC50 of 410 nM. In turn, `Cc1c(N)ccc2[nH]c(-c3ccc(N)cc3)nc12` showed a half-inhibitory concentration (IC50) of 1210 nM. This IC50 lies about 3-fold higher than the previous one.

In the case of `COc1ccccc1-n1ccnc1SCC(=O)Nc1cccc(C(F)(F)F)c1`, the IC50 amounted to 160 nM.

Molecule `CN1CCCC1CCNc1ncc2c(-c3ccc(NC(=O)Nc4cc(C(F)(F)F)ccc4F)c(F)c3)nn(C)c2n1` (stereo not given) came in with an IC50 of 290 nM. On to `COc1ccc(CN2CCCC(Nc3ccc(F)c(F)c3)C2)c(O)c1` (stereo not given), for which the half-inhibitory concentration (IC50) was determined as 1090 nM.

As for `CCCCCCCc1cc(O)c2c(c1)OC(C)(C)c1ccncc1-2`, the half-maximal inhibitory concentration (IC50) worked out at 1150 nM. Molecule `O=C1NC(=S)NC1=CC=Cc1ccc([N+](=O)[O-])o1` yielded an IC50 of 1070 nM. In turn, `N=C(N)c1cccc(OCCCOc2cccc(NC(=O)Nc3ccc([N+](=O)[O-])cc3)c2)c1` gave a half-inhibitory concentration (IC50) of 860 nM.

`CN(C)c1ccc(CN2CCCCC(NC(=O)c3cc(-c4ccccc4F)cs3)C2)cc1` (stereo not given) had a 50% inhibitory concentration (IC50) of 830 nM. `COc1cc(C=CC(=O)N2CCC3(CC2)CC(=O)c2ccccc2O3)cc(OC)c1OC` came in with an IC50 of 760 nM.

Take `Cc1cc(N[C@@H](CC(C)C)C(=O)NCCc2ccccc2)nc(NCCc2cccs2)n1`: the half-inhibitory concentration (IC50) was 1200 nM. For the molecule `O=C(NCCc1ccccc1)N(Cc1ccccc1-c1cccc(CNCCc2ccccc2)c1)C1CCN(Cc2ccccc2)CC1`, the IC50 is 620 nM. This IC50 is about 1.9-fold lower than that of the molecule before. In turn, `CCCN(CC1CC1)c1ncc(-c2cccc(CNCCC3CCCN3C)c2)cn1` (stereo not given) came in with a 50% inhibitory concentration (IC50) of 750 nM. Consider `Cc1[nH]c(C)c(-c2ccc(-c3ccccc3C(F)(F)F)nc2)c(=O)c1Br`, for which the half-inhibitory concentration (IC50) was found to be 170 nM. `N#Cc1ccc2c(c1)CN(CCC1CCC(NC(=O)c3cc4ccccc4cc3N)CC1)CC2` (stereo not given) displayed an IC50 of 1040 nM.

For the molecule `CCCn1cnc2cc(C(=O)Nc3ccc(-c4cccc(CN(C)C)c4)cc3)ccc2c1=O`, the IC50 was found to be 930 nM.

For the molecule `CC(O)C1CCCCN1C(=O)c1ccc(-c2ccc(-c3nc4ccccc4[nH]3)s2)cc1` (stereo not given), the half-maximal inhibitory concentration (IC50) amounted to 970 nM.

In turn, `NC(=O)c1ccsc1NC(=O)CNC(c1ccccc1)c1ccc(Cl)cc1` (stereo not given) returned a concentration for half-maximal inhibition (IC50) of 260 nM. This IC50 lies about 3.7-fold lower than the previous one. As for `CC(=O)c1ccc(-c2ccc(C(=O)NCCCCN3CCC(c4ccc5c(c4O)CCCC5)CC3)cc2)cc1`, the concentration for half-maximal inhibition (IC50) came out at 760 nM. With `O=C(C=Cc1cccs1)N(CCCn1ccnc1)c1nc2ccc(F)cc2s1`, the IC50 was 1600 nM. Regarding `COc1ccc2nccc([C@@H](O)CN3CCC(NC(=O)[C@@H]4Cc5ccccc5CN4C(=O)OC(C)(C)C)CC3)c2c1`, the IC50 is 890 nM. Compared with the last molecule, the IC50 is about 1.8-fold lower.
